Values of other authors in patent US9181529B2, “Titration of differentiation medium components” (Cellular Dynamics International, Inc., priority 2010, dated 2015).

How the values were obtained:
[1] = tested on: ROCK2; details: ATP-competitive, read-out: IC50 ROCK1/ROCK2
[2] = tested on: pluripotent stem cell-derived cardiomyocytes

SMILES	chronotropic effect [2]	also measured
CC(C)NCC(O)c1ccc(O)c(O)c1 (stereo not shown) [isoprenaline]	positive chronotropic effect	
COc1ccc([C@@H]2Sc3ccccc3N(CCN(C)C)C(=O)[C@@H]2OC(C)=O)cc1 [diltiazem]		contractile activity [2]: inhibits contractile activity in a dose-dependent manner
CNC[C@H](O)c1cccc(O)c1 [phenylephrine]	positive chronotropic effect	
